{"source": "patent US9968649B2", "about": "“Vasopressin formulations for use in treatment of hypotension” (Par Pharmaceutical, Inc., priority 2015, dated 2018)", "origin": "cited, not measured here", "test_system": "healthy subjects", "settings": "cited from earlier work"}
{"smiles": "COc1ccc2c(c1)c(CC(=O)O)c(C)n2C(=O)c1ccc(Cl)cc1", "note": "[Indomethacin]", "values": [{"measurement": "time to offset for vasopressin's effect on peripheral vascular resistance and cardiac output", "setting": "co-administered with vasopressin, healthy subjects", "result": "more than doubles"}]}
{"smiles": "FC(F)(F)C(Cl)Br", "note": "(stereo not shown) [Halothane]", "values": [{"measurement": "impact on exposure to endogenous vasopressin", "setting": "in vivo", "result": "do not impact exposure"}]}
{"smiles": "NS(=O)(=O)c1cc(C(=O)O)c(NCc2ccco2)cc1Cl", "note": "[Furosemide]", "values": [{"measurement": "increase of urine flow", "setting": "co-administered with exogenous vasopressin, healthy subjects", "result": 9, "unit": "fold"}]}
{"smiles": "CC[N+](CC)(CC)CC", "note": "[tetra-ethylammonium]", "values": [{"measurement": "increase of the pressor effect of vasopressin", "setting": "healthy subjects", "result": 20, "unit": "%"}]}
